# Assays:
# TRAMP-C2 cells = test: Mouse model of prostate cancer (subcutaneous TRAMP-C2); assay type: in vivo
# Source text: (§1) BALB/c and C57BL/6 (B6) wild-type mice were purchased from DBL. For the subcutaneous tumor model of melanoma and prostate cancer, CT26 (3×10^5 cells/mouse), B16F10 (1×10^6 cells/mouse) and TRAMP-C2 cells (1×10^6 cells/mouse) were mixed with Matrigel matrix (Corning) and inoculated subcutaneously into the right flank of the mice, and 4T1 (1×10^5 cells/mouse) cells mixed with Matrigel matrix and inoculated into a 4th mammary fat pad of the mice. TAMpepK, and MpepK peptides (200 nmol/kg) were injected intraperitoneally every 3 days, beginning at day 7 after tumor inoculation, and tumor volume was measured by electronic caliper. All tumor tissues were harvested after the end of the study and tumor weight was measured by an electronic balance.
# Cells were harvested and lysed in PRO-PREP protein extraction solution (iNtRON, Bio Inc, Sungnam, Korea). Protein concentrations were measured with a Bradford Protein Assay Reagent kit (Bio-Rad, Richmond, CA, USA). Proteins were fractionated by 10% SDS-polyacrylamide gels electrophoresis (PAGE), and transferred onto polyvinylidene difluoride (PVDF) membranes. These were incubated with anti-arginase 1, anti-CD206, anti-caspase 3, anti-E-cadherin, anti-fibronectin, anti-PCNA, anti-TGF-β, anti-MMP9, and anti-β-actin Ab as primary antibodies. Goat anti-rabbit horseradish peroxidase-conjugated IgG or goat anti-mouse horseradish peroxidase-conjugated IgG (Abcam, Cambridge, Mass., USA) served as secondary antibodies. Protein bands were detected with a chemiluminescence reagent kit (SurModics).
# Hepa1-6 cells = test: Mouse model of hepatocellular carcinoma (subcutaneous Hepa1-6); assay type: in vivo
# Experimental: C57BL/6 (B6) wild-type mice purchased from DBL. For the subcutaneous tumor model of hepatocellular carcinoma, Hepa1-6 cells were mixed with Matrigel matrix (Corning) and inoculated subcutaneously into the right flank (4×10^5 cells/mouse) of the mice. MpepK peptide (100, 200 and 400 nmol/kg) were injected intraperitoneally every 3 days, beginning at day 12 after tumor inoculation and tumor volume was measured by electronic caliper. All animals were maintained in a specific pathogen-free environment on a 12-h light/dark cycle with free access to food and water. After the experiments were terminated, all mice were euthanized using isoflurane and cervical dislocation.
# PC3 cells = test: Invasion assay of prostate cancer cells with conditioned medium of macrophages; assay type: cell-based, human; settings: conditioned medium of M2 macrophages and M2-like TAMs pretreated with peptide
# Experimental: To obtain conditioned media of tumor (TCM), PC3 cells were seeded at 2×10^5 cells/well in culture medium in 24-well plates (Corning Inc). After 24 hours, the medium was changed to serum-free RPMI1640 medium and the cells were incubated for 24 hours. For conditioned media of macrophages, THP-1 cells were seeded at 2×10^5 cells/well in culture medium in 24-well plates (Corning Inc) and incubated with 100 nM PMA for 24 h. Cells were polarized into M0, M1, and M2 macrophages or TAM macrophages by TCM and changed to serum-free RPMI1640 medium. After 24 hours, the medium was changed to serum-free RPMI1640 medium and the cells were incubated for 24 hours. Supernatants were harvested and clarified with syringe filters (0.2 μm, Milipore). […]
# The invasiveness of prostate cancer cells treated with conditioned media of macrophages was tested according to the manufacturer's instructions for the invasion assay (Corning Inc.) with slight modifications. Briefly, invasiveness was assessed using 24-well plates fitted with polycarbonate 8-μm pore membrane inserts (Corning Inc.) pre-coated with Matrigel (200-300 μg/mL) for 2 hours at 37° C. […] Five randomly selected fields per membrane were counted under a light microscope (Olympus). The invasion index was calculated from the number of cells that migrated in response to conditioned medium compared with the control without conditioned medium.
# 4T1 = test: 4th mammary orthotopic mouse model of breast cancer (4T1); assay type: in vivo
# Source text: as §1
# Total RNA was extracted using Easy-Blue reagent. Concentrations of RNA were determined and quantified by measuring absorbance at 260 and 280 nm with a spectrophotometer. Complementary DNA (cDNA) was synthesized from total RNA using a Maxime RT PreMix kit (iNtRON). Real-time PCR analysis was performed with SYBR Green Master Mix. PCR conditions were forty-five cycles at 95° C. for 5 min, followed by 95° C. for 10 sec, 60° C. for 10 sec and 72° C. for 10 sec. mRNA expression were quantified in triplicate. Data were measured with CFX Software (Bio-Rad). GAPDH and β-actin were used as internal controls.
# M2 macrophages = test: Cell viability test (CCK-8) of dKLA-conjugated alanine-substituted peptides; assay type: cell-based, human; settings: 1.5 μM, 1 hour then 24 hours, CCK-8, compared to control M2 macrophage
# Experimental: (§2) THP-1 monocytes were differentiated into macrophages (M0) by 24 h incubation with 100 nM phorbol 12-myristate 13-acetate (PMA, Sigma) followed by 24 h incubation in RPMI medium (Invitrogen). Macrophages were polarized in M1 macrophages (M1) by incubation with 20 ng/ml of IFN-γ (Prospec) and 100ng/m1 of LPS (Sigma). Macrophage M2 polarization(M2) was obtained by incubation with 20 ng/ml of interleukin (IL) 4 (Prospec) and 20 ng/ml of interleukin 13 (Pro spec).
# (§3) […] Cell viability was analyzed using the CCK-8 assay: CCK-8 reagent (Enzo Life Sciences) was added to each well; incubation was continued for 2 hours, and absorbance was measured at 450 nm with a microplate reader (Molecular Devices).
# [1] = as above; assay type: cell-based, human; settings: FIG. 25; read-out: cytotoxicity IC50 in M2 macrophages
# Experimental: as §2, §3
# [2] = TRAMP-C2 in C57BL6J mice, i.p. every 3 days, vs PBS group
smiles,measurement,setting,value
CC[C@H](C)[C@H](NC(=O)[C@H](CC(C)C)NC(=O)[C@H](C)NC(=O)[C@@H]1CCCN1C(=O)[C@H](CC(C)C)NC(=O)CNC(=O)[C@@H](NC(=O)[C@@H](NC(=O)[C@H](CC(C)C)NC(=O)[C@@H](NC(C)=O)C(C)C)[C@@H](C)O)[C@@H](C)O)C(=O)N[C@@H](CO)C(=O)N[C@@H](Cc1c[nH]c2ccccc12)C(=O)N[C@H](C(=O)N[C@@H](CCCCN)C(=O)N[C@@H](CCCNC(=N)N)C(=O)N[C@@H](CCCCN)C(=O)N[C@@H](CCCNC(=N)N)C(=O)N[C@@H](CCC(N)=O)C(=O)N[C@@H](CCC(N)=O)C(=O)NCC(=O)NCC(=O)NCC(=O)NCC(=O)N[C@@H](CO)C(=O)N[C@H](CCCCN)C(=O)N[C@H](CC(C)C)C(=O)N[C@H](C)C(=O)N[C@H](CCCCN)C(=O)N[C@H](CC(C)C)C(=O)N[C@H](C)C(=O)N[C@H](CCCCN)C(=O)N[C@H](CCCCN)C(=O)N[C@H](CC(C)C)C(=O)N[C@H](C)C(=O)N[C@H](CCCCN)C(=O)N[C@H](CC(C)C)C(=O)N[C@H](C)C(=O)N[C@H](CCCCN)C(=O)O)[C@@H](C)CC [MpepK],tumor volume,TRAMP-C2 cells; [2],significantly reduced
same,tumor weight,TRAMP-C2 cells; [2],significantly reduced
same,body weight of mice,TRAMP-C2 cells; TRAMP-C2 prostate cancer model,did not significantly change
same,E-cadherin (epithelial cell marker) in tumor tissues,TRAMP-C2 cells; prostate cancer model,increased
same,expression of PCNA (proliferative marker) in tumor tissues,TRAMP-C2 cells; prostate cancer model,reduced
same,expression of TGF-β and MMP9 in tumor tissues,TRAMP-C2 cells; prostate cancer model,reduced
same,vimentin and fibronectin (mesenchymal marker) in tumor tissues,TRAMP-C2 cells; prostate cancer model,reduced
same,body weight change,"Hepa1-6 cells; Hepa1-6 model, 100, 200 and 400 nmol/kg i.p. every 3 days",no significant difference
same,survival rate,"Hepa1-6 cells; Hepa1-6 model, 100, 200 and 400 nmol/kg, vs PBS group",significantly extended
same,tumor volume,"Hepa1-6 cells; Hepa1-6 model, all doses (100, 200 and 400 nmol/kg) i.p. every 3 days, vs PBS group",significantly reduced
same,invasion of PC3 cells,PC3 cells,significantly reduced
same,gene expression of arginase 1 (M2 macrophage marker),4T1; compared to PBS,significantly reduced
same,lung metastasis,4T1; vs PBS group,decreased
same,tumor volume,4T1; vs PBS group,decreased
same,tumor weight,4T1; vs PBS group,decreased
same,cytotoxic effect in M2 macrophages,M2 macrophages,significant cytotoxic effects
same,IC50,[1],1120 nM

# From patent US20220354957A1, “PEPTIDES TARGETING MACROPHAGES, AND CONJUGATES, COMPOSITIONS, AND USES THEREOF” (Twinpig Biolab, Inc., priority 2021, published 2022)
